Patent EP4813984A1 (Jiangsu Hengrui Pharmaceuticals Co., Ltd., priority 2023, dated 2025)

Each compound was assayed against T1, hGLP-1 receptor (Homo sapiens, UniProt P43220) (assay: Agonist activity against GLP-1 receptor (CRE-luciferase reporter, ONE-Glo Luciferase Assay System)). Details: CHO-K1/CRE-luc/hGLP-1 receptor cells; 5 h incubation with compound; chemiluminescence readout.
T1 construct: expressed in transfected cells; host or cells: CHO-K1 (stably transfected with hGLP-1 receptor plasmid and CRE-luc plasmid)
T1 sequence (P43220 24-463): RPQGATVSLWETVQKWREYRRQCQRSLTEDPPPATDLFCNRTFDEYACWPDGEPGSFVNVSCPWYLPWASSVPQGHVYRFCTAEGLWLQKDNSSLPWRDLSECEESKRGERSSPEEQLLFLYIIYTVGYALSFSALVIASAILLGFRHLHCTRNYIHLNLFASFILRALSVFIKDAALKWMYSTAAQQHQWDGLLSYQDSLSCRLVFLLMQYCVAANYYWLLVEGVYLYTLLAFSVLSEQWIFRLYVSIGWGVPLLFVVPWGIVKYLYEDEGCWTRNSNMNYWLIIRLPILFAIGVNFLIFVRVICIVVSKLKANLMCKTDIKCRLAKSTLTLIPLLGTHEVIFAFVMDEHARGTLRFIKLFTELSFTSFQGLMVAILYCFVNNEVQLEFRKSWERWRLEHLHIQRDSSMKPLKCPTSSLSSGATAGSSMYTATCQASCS
Type: cell-based
Description: This experiment was intended to test the agonist activity of compound molecules against hGLP-1 receptor and evaluate the in vitro activity of the molecules according to EC50. In this experiment, ONE-Glo™ Luciferase Assay System (ONE-Glo™ Luciferase Assay System, Promega, E6110) was used. Under the action of the compound molecules, GLP-1R downstream signaling pathways were activated to cause elevated cAMP level. The binding of cAMP to CRE could initiate the transcriptional expression of a CRE downstream luciferase gene. The luciferase could emit fluorescence when reacting with a substrate thereof. The fluorescence signal, which reflected the activity of the compound for agonizing GLP-1 receptor, was measured by means ONE-Glo™ reagent.
A stably transfected CHO-K1/CRE-luc/hGLP-1 receptor cell strain (hGLP-1 receptor plasmid constructed in-house and CRE-luc plasmid Promega E8471) was constructed. CHO-K1/CRE-luc/hGLP-1 receptor cells were digested, centrifuged, and then resuspended. The single cell suspension was uniformly mixed and adjusted to a viable cell density of 2.78 × 10^5 cells/ml with a cell culture medium (DME/F-12 + 10% FBS). The resulting solution was added to a 96-well cell culture plate at 90 µL/well (Corning, #3903). The culture plate was incubated in an incubator for 16 h (37°C, 5% CO2).
The compound was dissolved in DMSO to prepare a stock solution with an initial concentration of 20 mM. The starting concentration of the small molecule compound was 0.02 mM. The compound was subjected to 3-fold dilution for 10 points, wherein the 11th point was DMSO. Another 96-well plate was taken, to which was added 95 µL/well of a cell culture medium (DME/F-12 + 10% FBS), followed by 5 µL/well of test samples with different concentrations. The mixtures were uniformly mixed. Next, 10 µL/well of test samples with different concentrations were added to the cell culture plate, with two duplicate wells for each sample. The culture plate was incubated in an incubator for 5 h (37°C, 5% CO2). The 96-well cell culture plate was taken out. 100 µL/well of ONE-Glo™ reagent was added, followed by incubation at room temperature for 10 minutes. Chemiluminescence was measured in and by a microplate reader (PHERAstar FS, BMG labtech).
Data were processed and analyzed using Microsoft Excel and Graphpad Prism 10. EC50 values of the compounds were obtained. Table 1. Agonist activity of the compounds of the present invention against hGLP-1 receptor

SMILES | EC50 [pM] | Emax [fold]
Cc1cc(-n2nc3c(c2-c2cccn(-c4ccc5c(cnn5C)c4)c2=O)[C@H](C)N(C(=O)c2cc4cc([C@H]5CCOC(C)(C)C5)ccc4n2[C@@]2(c4noc(=O)[nH]4)C[C@@H]2C)CC3)cc(C)c1F [Compound 3, 3-((1S,2S)-1-(5-((S)-2,2-dimethyltetrahydro-2H-pyran-4-yl)-2-((S)-2-(4-fluoro-3,5-dimethylphenyl)-4-methyl-3-(1-(1-methyl-1H-indazol-5-yl)-2-oxo-1,2-dihydropyridin-3-yl)-4,5,6,7-tetrahydro-2H-pyrazolo[4,3-c]pyridine-5-carbonyl)-1H-indol-1-yl)-2-methylcyclopropyl)-1,2,4-oxadiazol-5(4H)-one] | 90 | 19.88
Cc1cc(-n2nc3c(c2-n2ccn(-c4ccc5c(cnn5C)c4F)c2=O)[C@H](C)N(C(=O)c2cc4cc5c(cc4n2[C@@]2(c4noc(=O)[nH]4)C[C@@H]2C)OCC2COCCC52)CC3)cc(C)c1F (stereo partly drawn) [Compound 4, 3-((1S,2S)-1-(9-((S)-3-(3-(4-fluoro-1-methyl-1H-indazol-5-yl)-2-oxo-2,3-dihydro-1H-imidazol-1-yl)-2-(4-fluoro-3,5-dimethylphenyl)-4-methyl-4,5,6,7-tetrahydro-2H-pyrazolo[4,3-c]pyridine-5-carbonyl)-1,4a,5,11b-tetrahydro-4H-pyrano[4',3':4,5]pyrano[3,2-f]indol-8(2H)-yl)-2-methylcyclopropyl)-1,2,4-oxadiazol-5(4H)-one] | 390 | 16.51
Cc1cc(-n2nc3c(c2-n2ccn(-c4ccc5c(cnn5C)c4F)c2=O)[C@H](C)N(C(=O)c2cc4cc5c(cc4n2[C@@]2(c4noc(=O)[nH]4)C[C@@H]2C)OCC52CCOCC2)CC3)cc(C)c1F [Compound 7] | 30 | 14.46
Cc1cc(-n2nc3c(c2N2C[C@@H]4COc5c(ccc6c5cnn6C5CC5)N4C2=O)[C@H](C)N(C(=O)c2cc4cc([C@H]5CCOC(C)(C)C5)ccc4n2[C@@]2(c4noc(=O)[nH]4)C[C@@H]2C)CC3)cc(C)c1F [Compound 24, (R)-1-cyclopropyl-7-((S)-5-(5-((S)-2,2-dimethyltetrahydro-2H-pyran-4-yl)-1-((1S,2S)-2-methyl-1-(5-oxo-4,5-dihydro-1,2,4-oxadiazol-3-yl)cyclopropyl)-1H-indole-2-carbonyl)-2-(4-fluoro-3,5-dimethylphenyl)-4-methyl-4,5,6,7-tetrahydro-2H-pyrazolo[4,3-c]pyridin-3-yl)-5,5a,6,7-tetrahydro-1H,8H-imidazo[1',5':4,5][1,4]oxazino[2,3-e]indazol-8-one] | 30 | 18.51
COCCn1ncc2c(F)c3c(cc21)OC[C@H]1CN(c2c4c(nn2-c2cc(C)c(F)c(C)c2)CCN(C(=O)c2cc5cc([C@H]6CCOC(C)(C)C6)ccc5n2[C@@]2(c5noc(=O)[nH]5)C[C@@H]2C)[C@H]4C)C(=O)N31 [Compound 30, (R)-2-((S)-5-(5-((S)-2,2-dimethyltetrahydro-2H-pyran-4-yl)-1-((1S,2S)-2-methyl-1-(5-oxo-4,5-dihydro-1,2,4-oxadiazol-3-yl)cyclopropyl)-1H-indole-2-carbonyl)-2-(4-fluoro-3,5-dimethylphenyl)-4-methyl-4,5,6,7-tetrahydro-2H-pyrazolo[4,3-c]pyridin-3-yl)-10-fluoro-7-(2-methoxyethyl)-2,3,3a,4-tetrahydro-1H,7H-imidazo[1',5':4,5][1,4]oxazino[3,2-f]indazol-1-one] | 20 | 20.59
Cc1cc(-n2nc3c(c2N2C[C@@H]4COc5c(c(F)cc6c5cnn6C5CC5)N4C2=O)[C@H](C)N(C(=O)c2cc4cc([C@H]5CCOC(C)(C)C5)ccc4n2[C@@]2(c4noc(=O)[nH]4)C[C@@H]2C)CC3)cc(C)c1F [Compound 37, (R)-1-cyclopropyl-7-((S)-5-(5-((S)-2,2-dimethyltetrahydro-2H-pyran-4-yl)-1-((1S,2S)-2-methyl-1-(5-oxo-4,5-dihydro-1,2,4-oxadiazol-3-yl)cyclopropyl)-1H-indole-2-carbonyl)-2-(4-fluoro-3,5-dimethylphenyl)-4-methyl-4,5,6,7-tetrahydro-2H-pyrazolo[4,3-c]pyridin-3-yl)-10-fluoro-5,5a,6,7-tetrahydro-1H,8H-imidazo[1',5':4,5][1,4]oxazino[2,3-e]indazol-8-one] | 30 | 18.06
Cc1cc(-n2nc3c(c2N2C[C@@H]4COc5cc6c(cnn6C(C)C)c(F)c5N4C2=O)[C@H](C)N(C(=O)c2cc4cc([C@H]5CCOC(C)(C)C5)ccc4n2[C@@]2(c4noc(=O)[nH]4)C[C@@H]2C)CC3)cc(C)c1F [Compound 40, (R)-2-((S)-5-(5-((S)-2,2-dimethyltetrahydro-2H-pyran-4-yl)-1-((1S,2S)-2-methyl-1-(5-oxo-4,5-dihydro-1,2,4-oxadiazol-3-yl)cyclopropyl)-1H-indole-2-carbonyl)-2-(4-fluoro-3,5-dimethylphenyl)-4-methyl-4,5,6,7-tetrahydro-2H-pyrazolo[4,3-c]pyridin-3-yl)-10-fluoro-7-isopropyl-2,3,3a,4-tetrahydro-1H,7H-imidazo[1',5':4,5][1,4]oxazino[3,2-f]indazol-1-one] | 30 | 19.36

The remaining compounds from weak to strong by EC50, led by results:

EC50 [pM] | Emax [fold] | SMILES
20 | 22.76 | Cc1cc(-n2nc3c(c2N2C[C@@H]4COc5c(ccc6c5cnn6C)N4C2=O)[C@H](C)N(C(=O)c2cc4cc([C@H]5CCOC(C)(C)C5)ccc4n2[C@@]2(c4noc(=O)[nH]4)C[C@@H]2C)CC3)cc(C)c1F [Compound 23, (R)-7-((S)-5-(5-((S)-2,2-dimethyltetrahydro-2H-pyran-4-yl)-1-((1S,2S)-2-methyl-1-(5-oxo-4,5-dihydro-1,2,4-oxadiazol-3-yl)cyclopropyl)-1H-indole-2-carbonyl)-2-(4-fluoro-3,5-dimethylphenyl)-4-methyl-4,5,6,7-tetrahydro-2H-pyrazolo[4,3-c]pyridin-3-yl)-1-methyl-5,5a,6,7-tetrahydro-1H,8H-imidazo[1',5':4,5][1,4]oxazino[2,3-e]indazol-8-one]
20 | 18.46 | Cc1cc(-n2nc3c(c2N2C[C@@H]4COc5cc6c(cnn6C(F)F)c(F)c5N4C2=O)[C@H](C)N(C(=O)c2cc4cc([C@H]5CCOC(C)(C)C5)ccc4n2[C@@]2(c4noc(=O)[nH]4)C[C@@H]2C)CC3)cc(C)c1F [Compound 25, (R)-7-(difluoromethyl)-2-((S)-5-(5-((S)-2,2-dimethyltetrahydro-2H-pyran-4-yl)-1-((1S,2S)-2-methyl-1-(5-oxo-4,5-dihydro-1,2,4-oxadiazol-3-yl)cyclopropyl)-1H-indole-2-carbonyl)-2-(4-fluoro-3,5-dimethylphenyl)-4-methyl-4,5,6,7-tetrahydro-2H-pyrazolo[4,3-c]pyridin-3-yl)-10-fluoro-2,3,3a,4-tetrahydro-1H,7H-imidazo[1',5':4,5][1,4]oxazino[3,2-f]indazol-1-one]
20 | 19.58 | Cc1cc(-n2nc3c(c2N2C[C@@H]4COc5cc6c(cnn6CC(F)(F)F)c(F)c5N4C2=O)[C@H](C)N(C(=O)c2cc4cc([C@H]5CCOC(C)(C)C5)ccc4n2[C@@]2(c4noc(=O)[nH]4)C[C@@H]2C)CC3)cc(C)c1F [Compound 29, (R)-2-((S)-5-(5-((S)-2,2-dimethyltetrahydro-2H-pyran-4-yl)-1-((1S,2S)-2-methyl-1-(5-oxo-4,5-dihydro-1,2,4-oxadiazol-3-yl)cyclopropyl)-1H-indole-2-carbonyl)-2-(4-fluoro-3,5-dimethylphenyl)-4-methyl-4,5,6,7-tetrahydro-2H-pyrazolo[4,3-c]pyridin-3-yl)-10-fluoro-7-(2,2,2-trifluoroethyl)-2,3,3a,4-tetrahydro-1H,7H-imidazo[1',5':4,5][1,4]oxazino[3,2-f]indazol-1-one]
10 | 21.50 | Cc1cc(-n2nc3c(c2N2C[C@@H]4COc5cc6c(cnn6C6CC6)c(F)c5N4C2=O)[C@H](C)N(C(=O)c2cc4cc([C@H]5CCOC(C)(C)C5)ccc4n2[C@@]2(c4noc(=O)[nH]4)C[C@@H]2C)CC3)cc(C)c1F [Compound 13, (R)-7-cyclopropyl-2-((S)-5-(5-((S)-2,2-dimethyltetrahydro-2H-pyran-4-yl)-1-((1S,2S)-2-methyl-1-(5-oxo-4,5-dihydro-1,2,4-oxadiazol-3-yl)cyclopropyl)-1H-indole-2-carbonyl)-2-(4-fluoro-3,5-dimethylphenyl)-4-methyl-4,5,6,7-tetrahydro-2H-pyrazolo[4,3-c]pyridin-3-yl)-10-fluoro-2,3,3a,4-tetrahydro-1H,7H-imidazo[1',5':4,5][1,4]oxazino[3,2-f]indazol-1-one]
